# Reference: patent publication US20130072430A1, “METHODS FOR TREATMENT OR PROPHYLAXIS OF KIDNEY OR LIVER DYSFUNCTION” (NPS PHARMACEUTICALS, INC., priority 2010, published 2013)
# Test system: Human patients with short bowel syndrome
# Experiment: Example 2: liver biomarkers (albumin, gamma glutamyl transferase, total bilirubin, ALT, AST, ALP) in short bowel syndrome patients, every four weeks for 24 weeks
# Assay type: in vivo
# Conditions: 0.05 mg/kg/d; for Gamma Glutamyl Transferase Observed Value, Mean / Gamma Glutamyl Transferase Observed Value, Median / ALKALINE PHOSPHATASE Change from Baseline, Median / ALT Change from Baseline, Mean / ALT Change from Baseline, Median / ALT Observed Value, Mean / ALT Observed Value, Median / AST Change from Baseline, Mean / AST Change from Baseline, Median / AST Observed Value, Mean / AST Observed Value, Median / Albumin Change from Baseline, Mean / Albumin Change from Baseline, Median / Albumin Observed Value, Mean / Albumin Observed Value, Median / Alkaline Phosphatase Change from Baseline, Mean / Alkaline Phosphatase Observed Value, Mean / Alkaline Phosphatase Observed Value, Median / Bilirubin Change from Baseline, Mean / Bilirubin Change from Baseline, Median / Bilirubin Observed Value, Mean / Bilirubin Observed Value, Median / Gamma Glutamyl Transferase Change from Baseline, Mean / Gamma Glutamyl Transferase Change from Baseline, Median: n=38; for ALT >10% decrease from Baseline, % of subjects / ALT >10% decrease from Baseline, n subjects / ALT >10% increase from Baseline, % of subjects / ALT >10% increase from Baseline, n subjects / ALT Within 10% of Baseline, % of subjects / ALT Within 10% of Baseline, n subjects / AST >10% decrease from Baseline, % of subjects / AST >10% decrease from Baseline, n subjects / AST >10% increase from Baseline, % of subjects / AST >10% increase from Baseline, n subjects / AST Within 10% of Baseline, % of subjects / AST Within 10% of Baseline, n subjects / Albumin >10% decrease from Baseline, % of subjects / Albumin >10% decrease from Baseline, n subjects / Albumin >10% increase from Baseline, n subjects / Albumin Within 10% of Baseline, % of subjects / Albumin Within 10% of Baseline, n subjects / Alkaline Phosphatase >10% decrease from Baseline, % of subjects / Alkaline Phosphatase >10% decrease from Baseline, n subjects / Alkaline Phosphatase >10% increase from Baseline, % of subjects / Alkaline Phosphatase >10% increase from Baseline, n subjects / Alkaline Phosphatase Within 10% of Baseline, % of subjects / Alkaline Phosphatase Within 10% of Baseline, n subjects / Bilirubin >10% decrease from Baseline, % of subjects / Bilirubin >10% decrease from Baseline, n subjects / Bilirubin >10% increase from Baseline, % of subjects / Bilirubin >10% increase from Baseline, n subjects / Bilirubin Within 10% of Baseline, % of subjects / Bilirubin Within 10% of Baseline, n subjects: m=38
# Procedure: To further confirm the results of Example 1, a further study was conducted involving more individuals and additional diagnostic biomarkers. Human patients with short bowel syndrome were divided into two groups: a control group (43 total individuals) to receive placebo, and an experimental group (42 total individuals) to receive teduglutide at 0.05 mg/kg/day throughout the study. Patients were treated by subcutaneous injection of placebo or the appropriate dose of teduglutide. Known biomarkers of liver function were monitored every four weeks, for 24 weeks. The liver biomarkers tested included albumin, gamma glutamyl transferase, total bilirubin, ALT and AST and ALP. Before administration of placebo or teduglutide, diagnostic biomarker levels were tested to establish a baseline for each individual.
# To determine the effect of GLP-2 on the levels of the diagnostic biomarkers, the average level of each biomarker was measured for the placebo and teduglutide treated groups for each visit. Furthermore, the average change from baseline was calculated using the established baseline values. For FIGS. 17-28, p-values were calculated using the t-test.
# P values are provided, which were calculated for each distribution of biomarker changes for each week using the chi-squared test.
smiles,measurement,setting,value
CC[C@H](C)[C@H](NC(=O)[C@H](Cc1ccccc1)NC(=O)[C@H](CC(=O)O)NC(=O)[C@H](CCCNC(=N)N)NC(=O)[C@H](C)NC(=O)[C@H](C)NC(=O)[C@H](CC(C)C)NC(=O)[C@H](CC(N)=O)NC(=O)[C@H](CC(=O)O)NC(=O)[C@H](CC(C)C)NC(=O)[C@@H](NC(=O)[C@@H](NC(=O)[C@H](CC(N)=O)NC(=O)[C@H](CCSC)NC(=O)[C@H](CCC(=O)O)NC(=O)[C@H](CC(=O)O)NC(=O)[C@H](CO)NC(=O)[C@H](Cc1ccccc1)NC(=O)[C@H](CO)NC(=O)CNC(=O)[C@H](CC(=O)O)NC(=O)CNC(=O)[C@@H](N)Cc1c[nH]cn1)[C@@H](C)O)[C@@H](C)CC)C(=O)N[C@@H](CC(N)=O)C(=O)N[C@@H](Cc1c[nH]c2ccccc12)C(=O)N[C@@H](CC(C)C)C(=O)N[C@H](C(=O)N[C@@H](CCC(N)=O)C(=O)N[C@H](C(=O)N[C@@H](CCCCN)C(=O)N[C@H](C(=O)N[C@H](C(=O)N[C@@H](CC(=O)O)C(=O)O)[C@@H](C)O)[C@@H](C)CC)[C@@H](C)O)[C@@H](C)CC [teduglutide],"Gamma Glutamyl Transferase Observed Value, Mean",Week 16,72.4 U/L
same,"Gamma Glutamyl Transferase Observed Value, Median",Week 16,54 U/L
same,"ALT >10% decrease from Baseline, % of subjects",Week 20,(60.5%)
same,"ALT >10% decrease from Baseline, n subjects",Week 20,23
same,"ALT >10% increase from Baseline, % of subjects",Week 20,(13.2%)
same,"ALT >10% increase from Baseline, n subjects",Week 20,5
same,"ALT Within 10% of Baseline, % of subjects",Week 20,(26.3%)
same,"ALT Within 10% of Baseline, n subjects",Week 20,10
same,"AST >10% decrease from Baseline, % of subjects",Week 20,(52.6%)
same,"AST >10% decrease from Baseline, n subjects",Week 20,20
same,"AST >10% increase from Baseline, % of subjects",Week 20,(18.4%)
same,"AST >10% increase from Baseline, n subjects",Week 20,7
same,"AST Within 10% of Baseline, % of subjects",Week 20,(28.9%)
same,"AST Within 10% of Baseline, n subjects",Week 20,11
same,"Albumin >10% decrease from Baseline, % of subjects",Week 20,(2.6%)
same,"Albumin >10% decrease from Baseline, n subjects",Week 20,1
same,"Albumin >10% increase from Baseline, n subjects",Week 20,0
same,"Albumin Within 10% of Baseline, % of subjects",Week 20,(97.4%)
same,"Albumin Within 10% of Baseline, n subjects",Week 20,37
same,"Alkaline Phosphatase >10% decrease from Baseline, % of subjects",Week 20,(60.5%)
same,"Alkaline Phosphatase >10% decrease from Baseline, n subjects",Week 20,23
same,"Alkaline Phosphatase >10% increase from Baseline, % of subjects",Week 20,(7.9%)
same,"Alkaline Phosphatase >10% increase from Baseline, n subjects",Week 20,3
same,"Alkaline Phosphatase Within 10% of Baseline, % of subjects",Week 20,(31.6%)
same,"Alkaline Phosphatase Within 10% of Baseline, n subjects",Week 20,12
same,"Bilirubin >10% decrease from Baseline, % of subjects",Week 20,(65.8%)
same,"Bilirubin >10% decrease from Baseline, n subjects",Week 20,25
same,"Bilirubin >10% increase from Baseline, % of subjects",Week 20,(21.1%)
same,"Bilirubin >10% increase from Baseline, n subjects",Week 20,8
same,"Bilirubin Within 10% of Baseline, % of subjects",Week 20,(13.2%)
same,"Bilirubin Within 10% of Baseline, n subjects",Week 20,5
same,"ALKALINE PHOSPHATASE Change from Baseline, Median",Week 20,−25.5 U/L
same,"ALT Change from Baseline, Mean",Week 20,−10.3 U/L
same,"ALT Change from Baseline, Median",Week 20,−6.5 U/L
same,"ALT Observed Value, Mean",Week 20,34.8 U/L
same,"ALT Observed Value, Median",Week 20,28.5 U/L
same,"AST Change from Baseline, Mean",Week 20,−4.2 U/L
same,"AST Change from Baseline, Median",Week 20,−2.5 U/L
same,"AST Observed Value, Mean",Week 20,28.4 U/L
same,"AST Observed Value, Median",Week 20,24.5 U/L
same,"Albumin Change from Baseline, Mean",Week 20,-0.6 g/L
same,"Albumin Change from Baseline, Median",Week 20,-1 g/L
same,"Albumin Observed Value, Mean",Week 20,41.8 g/L
same,"Albumin Observed Value, Median",Week 20,43 g/L
same,"Alkaline Phosphatase Change from Baseline, Mean",Week 20,−28.6 U/L
same,"Alkaline Phosphatase Observed Value, Mean",Week 20,109.8 U/L
same,"Alkaline Phosphatase Observed Value, Median",Week 20,94.5 U/L
same,"Bilirubin Change from Baseline, Mean",Week 20,-2.76 µmol/L
same,"Bilirubin Change from Baseline, Median",Week 20,-1.7 µmol/L
same,"Bilirubin Observed Value, Mean",Week 20,9.88 µmol/L
same,"Bilirubin Observed Value, Median",Week 20,7.85 µmol/L
same,"Gamma Glutamyl Transferase Change from Baseline, Mean",Week 20,−9.6 U/L
same,"Gamma Glutamyl Transferase Change from Baseline, Median",Week 20,−8 U/L
same,"Gamma Glutamyl Transferase Observed Value, Mean",Week 20,70.1 U/L
same,"Gamma Glutamyl Transferase Observed Value, Median",Week 20,47.5 U/L
same,"ALT >10% decrease from Baseline, % of subjects",Week 24,(63.2%)
same,"ALT >10% decrease from Baseline, n subjects",Week 24,24
same,"ALT >10% increase from Baseline, % of subjects",Week 24,(10.5%)
same,"ALT >10% increase from Baseline, n subjects",Week 24,4
same,"ALT Within 10% of Baseline, % of subjects",Week 24,(26.3%)
same,"ALT Within 10% of Baseline, n subjects",Week 24,10
same,"AST >10% decrease from Baseline, % of subjects",Week 24,(63.2%)
same,"AST >10% decrease from Baseline, n subjects",Week 24,24
same,"AST >10% increase from Baseline, % of subjects",Week 24,(15.8%)
same,"AST >10% increase from Baseline, n subjects",Week 24,6
same,"AST Within 10% of Baseline, % of subjects",Week 24,(21.1%)
same,"AST Within 10% of Baseline, n subjects",Week 24,8
same,"Albumin >10% decrease from Baseline, % of subjects",Week 24,(5.3%)
same,"Albumin >10% decrease from Baseline, n subjects",Week 24,2
same,"Albumin >10% increase from Baseline, n subjects",Week 24,0
same,"Albumin Within 10% of Baseline, % of subjects",Week 24,(94.7%)
same,"Albumin Within 10% of Baseline, n subjects",Week 24,36
same,"Alkaline Phosphatase >10% decrease from Baseline, % of subjects",Week 24,(60.5%)
same,"Alkaline Phosphatase >10% decrease from Baseline, n subjects",Week 24,23
same,"Alkaline Phosphatase >10% increase from Baseline, % of subjects",Week 24,(15.8%)
same,"Alkaline Phosphatase >10% increase from Baseline, n subjects",Week 24,6
same,"Alkaline Phosphatase Within 10% of Baseline, % of subjects",Week 24,(23.7%)
same,"Alkaline Phosphatase Within 10% of Baseline, n subjects",Week 24,9
same,"Bilirubin >10% decrease from Baseline, % of subjects",Week 24,(68.4%)
same,"Bilirubin >10% decrease from Baseline, n subjects",Week 24,26
same,"Bilirubin >10% increase from Baseline, % of subjects",Week 24,(15.8%)
same,"Bilirubin >10% increase from Baseline, n subjects",Week 24,6
same,"Bilirubin Within 10% of Baseline, % of subjects",Week 24,(15.8%)
same,"Bilirubin Within 10% of Baseline, n subjects",Week 24,6
same,"ALKALINE PHOSPHATASE Change from Baseline, Median",Week 24,−24.5 U/L
same,"ALT Change from Baseline, Mean",Week 24,−13.5 U/L
same,"ALT Change from Baseline, Median",Week 24,−7.5 U/L
same,"ALT Observed Value, Mean",Week 24,28.5 U/L
same,"ALT Observed Value, Median",Week 24,23.5 U/L
same,"AST Change from Baseline, Mean",Week 24,−5.8 U/L
same,"AST Change from Baseline, Median",Week 24,−5 U/L
same,"AST Observed Value, Mean",Week 24,25.8 U/L
same,"AST Observed Value, Median",Week 24,23 U/L
same,"Albumin Change from Baseline, Mean",Week 24,-0.4 g/L
same,"Albumin Change from Baseline, Median",Week 24,0 g/L
same,"Albumin Observed Value, Mean",Week 24,41.9 g/L
same,"Albumin Observed Value, Median",Week 24,42 g/L
same,"Alkaline Phosphatase Change from Baseline, Mean",Week 24,−29.2 U/L
same,"Alkaline Phosphatase Observed Value, Mean",Week 24,106.2 U/L
same,"Alkaline Phosphatase Observed Value, Median",Week 24,88 U/L
same,"Bilirubin Change from Baseline, Mean",Week 24,-3.68 µmol/L
same,"Bilirubin Change from Baseline, Median",Week 24,-2.35 µmol/L
same,"Bilirubin Observed Value, Mean",Week 24,8.64 µmol/L
same,"Bilirubin Observed Value, Median",Week 24,6.8 µmol/L
same,"Gamma Glutamyl Transferase Change from Baseline, Mean",Week 24,−13.6 U/L
same,"Gamma Glutamyl Transferase Change from Baseline, Median",Week 24,−6 U/L
same,"Gamma Glutamyl Transferase Observed Value, Mean",Week 24,60.4 U/L
same,"Gamma Glutamyl Transferase Observed Value, Median",Week 24,40.5 U/L
